Source: US9688671B2, “Metalloenzyme inhibitor compounds” (Viamet Pharmaceuticals, Inc., priority 2013, dated 2017)
In brackets after ≈: the same amount, converted by molar mass.

Tests used:
C. albicans = experiment: Minimum Inhibitory Concentration (MIC), C. albicans growth inhibition (CLSI M27-A2); format: cell-based; conditions: Candida albicans; about 50% growth reduction; approximately 48 h at 35±1° C.; RPMI+MOPS
Experimental: Compounds were assessed for their ability to inhibit the growth of common strains of fungus, C. albicans using a standardized procedure (CLSI M27-A2). Stock solutions of the test compounds and standards were prepared in DMSO at 1600 μg/mL (C. albicans). Eleven, serial, one-half dilutions of compounds were prepared in 96-well plates in RPMI+MOPS. The assay concentration ranges were 1-0.001 μg/mL (C. albicans). Cell suspensions of C. albicans were prepared and added to each well at concentrations of approximately 3.7×10^3 colony-forming-units per milliliter (cfu/mL). All testing was in duplicate. The inoculated plates were incubated for approximately 48 h at 35±1° C. At the completion of incubation the wells of each plate were evaluated visually for the presence of fungal growth. […] For voriconazole the MIC was the concentration which reduced C. albicans growth by 50% (per CLSI, M27-A2). For QC purposes C. krusei isolate ATCC 6258 (4.0×10^3 cfu/mL) was included in the VOR assay.

A. fumigatus = A. fumigatus MIC (CLSI M38-A2); conditions: Aspergillus fumigatus, read-out: Aspergillus MIC (Aspergillus fumigatus MIC50)
Coccidioides posadasii = experiment: microbe, parasite or virus in culture; format: cell-based; conditions: 48 h

| SMILES | MIC50 (C. albicans) | MIC50 (A. fumigatus) | MIC50 (Coccidioides posadasii) |
| --- | --- | --- | --- |
| N#Cc1ccc(NCc2ccc(C#Cc3ccc(C(F)(F)C(O)(Cn4cnnn4)c4ccc(F)cc4F)nc3)cc2)cc1 (racemic) [Example 2, 4-(4-((6-(2-(2,4-difluorophenyl)-1,1-difluoro-2-hydroxy-3-(1H-tetrazol-1-yl)propyl)pyridin-3-yl)ethynyl)benzylamino)benzonitrile] | 0.016 µg/mL (≈ 0.0274 µM) | 1 µg/mL (≈ 1.71 µM) |  |
| OC(Cn1cnnn1)(c1ccc(F)cc1F)C(F)(F)c1ccc(C#Cc2ccc(CNc3ccc(F)cc3)cc2)cn1 (racemic) [Example 8, 2-(2,4-difluorophenyl)-1,1-difluoro-1-(5-((4-((4-fluorophenylamino)methyl)phenyl)ethynyl)pyridin-2-yl)-3-(1H-tetrazol-1-yl)propan-2-ol] | 0.004 µg/mL (≈ 0.00694 µM) | 0.5 µg/mL (≈ 0.867 µM) |  |
| OC(Cn1cnnn1)(c1ccc(F)cc1F)C(F)(F)c1ccc(C#Cc2ccc(OCc3ccc(F)s3)cc2)cn1 (racemic) [Example 6, 2-(2,4-difluorophenyl)-1,1-difluoro-1-(5-((4-((5-fluorothiophen-2-yl)methoxy)phenyl)ethynyl)pyridin-2-yl)-3-(1H-tetrazol-1-yl)propan-2-ol] | 0.008 µg/mL (≈ 0.0137 µM) | 0.5 µg/mL (≈ 0.857 µM) |  |
| N#Cc1ccc(CC(=O)c2ccc(C#Cc3ccc(C(F)(F)C(O)(Cn4cnnn4)c4ccc(F)cc4F)nc3)cc2)cc1 (racemic) [Example 1, 4-(2-(4-((6-(2-(2,4-difluorophenyl)-1,1-difluoro-2-hydroxy-3-(1H-tetrazol-1-yl)propyl)pyridin-3-yl)ethynyl)phenyl)-2-oxoethyl)benzonitrile] | 0.004 µg/mL (≈ 0.00671 µM) | 0.5 µg/mL (≈ 0.838 µM) |  |
| OC(Cn1cnnn1)(c1ccc(F)cc1F)C(F)(F)c1ccc(C#Cc2ccc(OCc3ccc(C(F)(F)F)s3)cc2)cn1 (racemic) [Example 5, 2-(2,4-difluorophenyl)-1,1-difluoro-3-(1H-tetrazol-1-yl)-1-(5-((4-((5-(trifluoromethyl)thiophen-2-yl)methoxy)phenyl)ethynyl)pyridin-2-yl)propan-2-ol] |  |  | 0.12 µg/mL (≈ 0.189 µM) |
| OC(Cn1cnnn1)(c1ccc(F)cc1F)C(F)(F)c1ccc(C#Cc2ccc(OCc3ccc(Cn4cccn4)cc3)cc2)cn1 (racemic) [Example 13] | 0.016 µg/mL (≈ 0.025 µM) | 0.25 µg/mL (≈ 0.391 µM) |  |
| CN(C)Cc1ccc(COc2ccc(C#Cc3ccc(C(F)(F)C(O)(Cn4cnnn4)c4ccc(F)cc4F)nc3)cc2)cc1 (racemic) [Example 11, 2-(2,4-difluorophenyl)-1-(5-((4-(4-((dimethylamino)methyl)benzyloxy)phenyl)ethynyl)pyridin-2-yl)-1,1-difluoro-3-(1H-tetrazol-1-yl)propan-2-ol] | 0.016 µg/mL (≈ 0.0259 µM) | 0.5 µg/mL (≈ 0.811 µM) |  |
| OC(Cn1cnnn1)(c1ccc(F)cc1F)C(F)(F)c1ccc(C#Cc2ccc(CNc3ccc(Cl)cc3)cc2)cn1 (racemic) [Example 7, 1-(5-((4-((4-chlorophenylamino)methyl)phenyl)ethynyl)pyridin-2-yl)-2-(2,4-difluorophenyl)-1,1-difluoro-3-(1H-tetrazol-1-yl)propan-2-ol] |  |  | 0.12 µg/mL (≈ 0.202 µM) |
| C[C@@H](c1ncncc1F)[C@](O)(Cn1cncn1)c1ccc(F)cc1F [Voriconazole, voriconazole, reference compound] | 0.016 µg/mL (≈ 0.0458 µM) | 0.25 µg/mL (≈ 0.716 µM) |  |
